In US20180312473A1, “PHENAZINE DERIVATIVES AS ANTIMICROBIAL AGENTS” (priority 2015, published 2018) one finds MIC data, which are given here for one compound.

The test system of the assay is E. faecium 700221 (VRE). In words: MIC assay with Tiron or metal(II) cation co-treatment. The assay is classed as cell-based, Enterococcus faecium.

Read-outs that look alike come from different tables or passages of the source.

As to `Oc1ccc(I)c2nc3cc(Cl)c(Cl)cc3nc12` [Compound 12, 7,8-Dichloro-4-iodo-1-hydroxyphenazine], the MIC (usually the lowest concentration found to suppress growth) amounted to 3.13 µM. The MIC (Enterococcus faecium, VRE) came to 3.13 µM. The MIC (Enterococcus faecium, VRE, read-out: MIC with Tiron) turned out to be 3.13 µM. Besides, the MIC (Enterococcus faecium, VRE, E. faecium 700221, 200 μM CuSO4, read-out: MIC with Cu^2+) came to 1.56 µM. Under “read-out: MIC with Tiron”, the MIC is 3.13 µM.
